Reference: patent US20250011296A1, “MODULATORS OF MOLECULAR TARGETS EXPRESSED IN METABOLIC AND INFLAMMATORY DISORDERS” (Ohio State Innovation Foundation, priority 2021, published 2025)

Target: T1, PARP-5 (tankyrase-1, TNKS1) (Homo sapiens, UniProt O95271)
T1 construct: purchased BPS Bioscience Inc
T1 sequence (O95271 1-1327): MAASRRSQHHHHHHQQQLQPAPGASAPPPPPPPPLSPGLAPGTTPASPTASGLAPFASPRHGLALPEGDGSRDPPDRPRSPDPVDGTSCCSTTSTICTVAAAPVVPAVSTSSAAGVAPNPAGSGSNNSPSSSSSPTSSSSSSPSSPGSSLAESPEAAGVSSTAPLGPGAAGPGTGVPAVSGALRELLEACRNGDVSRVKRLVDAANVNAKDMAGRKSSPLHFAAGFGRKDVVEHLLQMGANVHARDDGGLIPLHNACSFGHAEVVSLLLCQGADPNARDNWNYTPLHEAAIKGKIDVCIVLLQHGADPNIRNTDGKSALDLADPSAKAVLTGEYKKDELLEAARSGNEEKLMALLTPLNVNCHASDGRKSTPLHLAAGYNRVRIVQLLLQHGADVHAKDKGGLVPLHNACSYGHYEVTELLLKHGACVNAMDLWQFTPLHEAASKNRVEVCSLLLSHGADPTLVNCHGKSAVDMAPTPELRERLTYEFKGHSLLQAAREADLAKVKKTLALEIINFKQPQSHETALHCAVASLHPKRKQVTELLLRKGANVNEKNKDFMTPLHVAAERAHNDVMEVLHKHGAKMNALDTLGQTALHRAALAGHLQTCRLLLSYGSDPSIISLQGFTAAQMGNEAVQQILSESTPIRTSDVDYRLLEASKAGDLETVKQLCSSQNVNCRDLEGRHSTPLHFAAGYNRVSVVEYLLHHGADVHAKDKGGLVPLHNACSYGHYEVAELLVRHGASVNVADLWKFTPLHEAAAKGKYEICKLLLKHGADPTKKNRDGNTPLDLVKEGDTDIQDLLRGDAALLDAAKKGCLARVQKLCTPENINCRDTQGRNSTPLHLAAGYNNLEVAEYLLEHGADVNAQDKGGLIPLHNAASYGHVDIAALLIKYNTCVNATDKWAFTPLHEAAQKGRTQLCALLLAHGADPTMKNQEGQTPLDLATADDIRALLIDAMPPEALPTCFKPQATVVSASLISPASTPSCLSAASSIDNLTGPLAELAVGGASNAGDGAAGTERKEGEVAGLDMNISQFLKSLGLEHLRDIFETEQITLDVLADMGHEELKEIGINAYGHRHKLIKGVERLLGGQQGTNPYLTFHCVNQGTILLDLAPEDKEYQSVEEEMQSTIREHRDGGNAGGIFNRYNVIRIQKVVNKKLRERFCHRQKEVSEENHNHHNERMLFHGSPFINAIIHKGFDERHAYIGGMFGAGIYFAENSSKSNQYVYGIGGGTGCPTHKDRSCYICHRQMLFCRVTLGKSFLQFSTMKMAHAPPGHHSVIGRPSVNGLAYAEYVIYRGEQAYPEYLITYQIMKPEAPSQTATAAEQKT
Assay: PARP-5 enzyme assay (TNKS1 Histone Ribosylation Assay kit)
Format: biochemical
Settings: for PARP-5 inhibitory activity / PARP-5% inhibition: 50 μg/mL; for PARP-5% inhibition: Table 20 summary; for inhibition at 50 µg/mL: read-out: PARP-5% inhibition, Table 15, isolates at 50 μg/mL
Experimental: Poly (ADP-ribose) polymerase 5 (PARP-5, also known as tankyrase-1 or TNKS1), is a nuclear enzyme involved in repairing single strand DNA breaks. Agonists of PARP-5 induce DNA repair, but the cost of PARP-5 activation is to slow glycolysis and limit GLUT-4-mediated glucose uptake. Small-molecule inhibition of the PARP-5 enzyme potentiates antidiabetic activities by increasing glucose uptake and insulin sensitivity. Extracts and compounds from the arils of M. fragrans were tested by using the TNKS1 Histone Ribosylation Assay kit (BPS Bioscience Inc.) according to the kit protocol. First, microplate wells were coated with immobilized histone substrate (50 μL) overnight at 4° C., then washed 3 times with PBS-Tween (200 μL). The wells were treated with blocking buffer and washed 3 times with PBS-Tween. The reaction mixture, which contained TNKS assay buffer and NAD+, was added to each sample well. Diluted sample solutions were added to the corresponding wells to achieve final concentrations of 50 μg/mL, followed by TNKS1 enzyme. After 1 hour, the plates were washed 3 times with PBS-Tween and incubated with primary antibody (1:800) for another hour. Following PBS-Tween wash, the secondary-HRP antibody was added (1:1000), incubated for 30 minutes, and finally chemiluminescent substrate was added. The plates were immediately measured for luminescence in the FLUOstar Optima plate reader (BMG Labtechnologies, GmbH, Inc.). The positive control included TNKS1 enzyme, NAD+, and DMSO; the substrate control included enzyme and DMSO; and the negative control included NAD+ and DMSO.297,304 The mace ethyl acetate fractions were screened for PARP-5 inhibition (Table 4).

PARP-5 inhibitory activity	PARP-5% inhibition	inhibition at 50 µg/mL	SMILES
not effective PARP-5 inhibitors	<50%	< 50%	C/C=C/c1cc(OC)c2c(c1)[C@H](C)[C@@H](c1ccc3c(c1)OCO3)O2 [Compound 41, licarin B]
not effective PARP-5 inhibitors	<50%	< 50%	C/C=C/c1cc(OC)c2c(c1)[C@H](C)[C@@H](c1ccc(O)c(OC)c1)O2 [Compound 42, licarin A]
